PMC7835349 (Communications Biology, 2021)
Where “and” joins values, the source holds several entries; their conditions need not be identical. Equal entries are not always repeated.

Assays:
RS4;11 xenograft = test: RS4;11 mouse xenograft efficacy (tumour volume); type: in vivo, C.B-17 SCID mouse; set-up: key to tumour volume, individual animals: tumour volume in mm³, length × width²/0.52; details: for tumour volume, individual animals: 10 mg/kg; for Tumour volume, Geo Mean: RS4;11 xenograft
Procedure: Female C.B.−17 SCID mice were purchased from Charles River Laboratories. Mice were 5–8 weeks old at the time of tumour implantation. All xenograft studies were conducted at our Association for the Assessment and Accreditation of Laboratory Animal Care accredited facility in Waltham, MA in accordance with ethical regulations described in the guidelines established by the internal Institutional Animal Care and Use Committee. The dendrimer conjugates were formulated in citrate/phosphate buffer pH 5.0, diluted 1:10 with 5% glucose containing 1% w/v Kolliphor HS15, and AZD4320 was formulated in 30% HP-β-CD and dosed as a weekly intravenous (IV) administration at a volume of 5 ml/kg at the indicated doses. Five million RS4;11, five million SUDHL-4 or five million OCI-LY-10 cells were injected subcutaneously in the right flank of mice in a volume of 0.1 ml. Tumour volumes (measured by caliper), animal body weight, and tumor condition were recorded twice weekly for the duration of the study. The tumour volume was calculated (taking length to be the longest diameter across the tumour and width to be the corresponding perpendicular diameter) using the formula: length (mm) x width (mm)^2/0.52. For efficacy studies, mice were randomized based on tumour volumes using stratified sampling and enrolled into control and treatment groups. Tumour growth inhibition from the start of treatment was quantified by measuring the difference in tumour volume between control and treated groups. Survival analysis was evaluated using Mantel-Cox test. Tumours were also taken for bioanalysis.

telemetered dogs = test: Conscious dog telemetry (QRS amplitude and other cardiovascular parameters, tolerability); details: for ECG PR interval / ECG QRS duration / Left ventricular -dP/dt (mmHg/s) / QRS amplitude (% baseline) / Systolic blood pressure (mmHg): 0.2 mg/kg
[1] = dog 264, 0.5h infusion, -0.75 hours (pre-dose)
[2] = dog 264, 0.5h infusion, -1 hours (pre-dose)
[3] = dog 264, 0.5h infusion, -1.25 hours (pre-dose)
[4] = dog, 0.2 mg/kg 0.5h infusion, 0.5 h
[5] = dog, 0.2 mg/kg 0.5h infusion, 0.75 h
[6] = dog, 0.2 mg/kg 0.5h infusion, 1 h
[7] = dog, 0.2 mg/kg 0.5h infusion, 1.5 h
[8] = dog, 0.2 mg/kg 0.5h infusion, 2 h
[9] = dog, 0.2 mg/kg 0.5h infusion, 3 h
[10] = dog, 0.2 mg/kg 0.5h infusion, 4 h
[11] = dog, 0.2 mg/kg 0.5h infusion, 6 h
[12] = dog, 0.2 mg/kg 0.5h infusion, 8 h
[13] = dog, 0.2 mg/kg 0.5h infusion, 12 h
[14] = dog, 0.2 mg/kg 0.5h infusion, 16 h
[15] = dog, 0.2 mg/kg 0.5h infusion, 22 h
[16] = dog, 0.2 mg/kg 0.5h infusion, -0.75 h

## CN(CCO)CCC(CSc1ccccc1)Nc1ccc(S(=O)(=O)NC(=O)c2ccc(N3CCC(C(O)c4ccccc4-c4ccc(Cl)cc4)CC3)cc2)cc1S(=O)(=O)C(F)(F)F (stereo not shown) [AZD4320]
RS4;11 xenograft; Day 38, in mm³ (unit assumed)
  tumour volume, individual animals: 591 and 667 and 633 and 678
RS4;11 xenograft; Day 41, in mm³ (unit assumed)
  tumour volume, individual animals: 365 and 322 and 378 and 334
RS4;11 xenograft; Day 45, in mm³ (unit assumed)
  tumour volume, individual animals: 218 and 235 and 397 and 259
RS4;11 xenograft; Day 48
  tumour volume, individual animals: 0 (2×) and 160 and 156
RS4;11 xenograft; Day 52
  tumour volume, individual animals: 0 (3×) and 144
RS4;11 xenograft; Day 55
  tumour volume, individual animals: 0 (3×) and 87
RS4;11 xenograft; Day 59, in mm³ (unit assumed)
  tumour volume, individual animals: 144 and 155 and 220 and 196
RS4;11 xenograft; Day 63, in mm³ (unit assumed)
  tumour volume, individual animals: 388 and 353 and 396 and 530
RS4;11 xenograft; Day 66, in mm³ (unit assumed)
  tumour volume, individual animals: 257 and 221 and 387 and 438
RS4;11 xenograft; Day 69, in mm³ (unit assumed)
  tumour volume, individual animals: 351 and 316 and 514 and 702
RS4;11 xenograft; Day 73, in mm³ (unit assumed)
  tumour volume, individual animals: 1003 and 568 and 1069 and 1242
RS4;11 xenograft; RS4;11 tumours, IV, 10 mg/kg or equivalent
  anti-tumour activity: complete regression
RS4;11 xenograft; 10 mg/kg or equivalent, day 29, in mm³ (unit assumed)
  Tumour volume, Geo Mean: 450.827
RS4;11 xenograft; 10 mg/kg or equivalent, day 31, in mm³ (unit assumed)
  Tumour volume, Geo Mean: 419.877
RS4;11 xenograft; 10 mg/kg or equivalent, day 32, in mm³ (unit assumed)
  Tumour volume, Geo Mean: 128.263
RS4;11 xenograft; 10 mg/kg or equivalent, day 34, in mm³ (unit assumed)
  Tumour volume, Geo Mean: 1
RS4;11 xenograft; 10 mg/kg or equivalent, day 38, in mm³ (unit assumed)
  Tumour volume, Geo Mean: 1
RS4;11 xenograft; 10 mg/kg or equivalent, day 41, in mm³ (unit assumed)
  Tumour volume, Geo Mean: 1
RS4;11 xenograft; 10 mg/kg or equivalent, day 45, in mm³ (unit assumed)
  Tumour volume, Geo Mean: 1
RS4;11 xenograft; 10 mg/kg or equivalent, day 48, in mm³ (unit assumed)
  Tumour volume, Geo Mean: 1
RS4;11 xenograft; 10 mg/kg or equivalent, day 56, in mm³ (unit assumed)
  Tumour volume, Geo Mean: 4.217
RS4;11 xenograft; 10 mg/kg or equivalent, day 59, in mm³ (unit assumed)
  Tumour volume, Geo Mean: 31.9033
Telemetered dogs; dog
  NOEL (no observed effect level), cardiovascular system: 0.2 mg/kg
Telemetered dogs; [1]
  ECG PR interval: 111 ms
  ECG QRS duration: 46 ms
  Left ventricular -dP/dt (mmHg/s): 3600 mmHg/s
  QRS amplitude (% baseline): 92 % baseline
  Systolic blood pressure (mmHg): 151 mmHg
Telemetered dogs; [2]
  ECG PR interval: 116 ms
  ECG QRS duration: 48 ms
  Left ventricular -dP/dt (mmHg/s): 3490 mmHg/s
  QRS amplitude (% baseline): 71 % baseline
  Systolic blood pressure (mmHg): 155 mmHg
Telemetered dogs; [3]
  ECG PR interval: 111 ms
  ECG QRS duration: 47 ms
  QRS amplitude (% baseline): 83 % baseline
  Systolic blood pressure (mmHg): 145 mmHg
Telemetered dogs; [4]
  ECG PR interval: 109 ms and 90 ms and 88 ms
  ECG QRS duration: 48 ms and 38 ms and 40 ms and 37 ms
  Left ventricular -dP/dt (mmHg/s): 3401 mmHg/s and 3547 mmHg/s and 3477 mmHg/s and 4862 mmHg/s
  QRS amplitude (% baseline): 105 % baseline and 100 % baseline and 97 % baseline and 101 % baseline
  Systolic blood pressure (mmHg): 175 mmHg and 149 mmHg and 155 mmHg and 165 mmHg
Telemetered dogs; [5]
  ECG PR interval: 113 ms and 82 ms and 85 ms and 87 ms
  ECG QRS duration: 49 ms and 37 ms and 40 ms
  Left ventricular -dP/dt (mmHg/s): 3504 mmHg/s and 3607 mmHg/s and 3634 mmHg/s and 4976 mmHg/s
  QRS amplitude (% baseline): 94 % baseline and 91 % baseline and 92 % baseline
  Systolic blood pressure (mmHg): 163 mmHg and 153 mmHg and 156 mmHg and 164 mmHg
Telemetered dogs; [6]
  ECG PR interval: 116 ms and 88 ms and 93 ms
  ECG QRS duration: 47 ms and 38 ms and 40 ms and 37 ms
  Left ventricular -dP/dt (mmHg/s): 3285 mmHg/s and 3388 mmHg/s and 2965 mmHg/s and 4801 mmHg/s
  QRS amplitude (% baseline): 88 % baseline and 90 % baseline and 92 % baseline and 95 % baseline
  Systolic blood pressure (mmHg): 150 mmHg and 144 mmHg and 138 mmHg and 159 mmHg
Telemetered dogs; [7]
  ECG PR interval: 119 ms and 95 ms and 104 ms and 88 ms
  ECG QRS duration: 49 ms and 38 ms and 40 ms and 37 ms
  Left ventricular -dP/dt (mmHg/s): 3080 mmHg/s and 3480 mmHg/s and 2336 mmHg/s and 4643 mmHg/s
  QRS amplitude (% baseline): 83 % baseline and 97 % baseline and 84 % baseline and 99 % baseline
  Systolic blood pressure (mmHg): 135 mmHg and 152 mmHg and 130 mmHg and 156 mmHg
Telemetered dogs; [8]
  ECG PR interval: 110 ms and 85 ms and 101 ms and 91 ms
  ECG QRS duration: 47 ms and 37 ms and 40 ms
  QRS amplitude (% baseline): 86 % baseline and 90 % baseline and 91 % baseline and 95 % baseline
  Systolic blood pressure (mmHg): 167 mmHg and 155 mmHg and 129 mmHg and 164 mmHg
Telemetered dogs; [9]
  ECG PR interval: 115 ms and 98 ms and 96 ms and 89 ms
  ECG QRS duration: 48 ms and 37 ms and 39 ms and 36 ms
  Left ventricular -dP/dt (mmHg/s): 3439 mmHg/s and 3333 mmHg/s and 2944 mmHg/s and 5068 mmHg/s
  QRS amplitude (% baseline): 121 % baseline and 94 % baseline and 76 % baseline and 88 % baseline
  Systolic blood pressure (mmHg): 164 mmHg and 159 mmHg and 145 mmHg and 170 mmHg
Telemetered dogs; [10]
  ECG PR interval: 106 ms and 97 ms and 92 ms and 91 ms
  ECG QRS duration: 46 ms and 36 ms and 39 ms
  Left ventricular -dP/dt (mmHg/s): 3609 mmHg/s and 3205 mmHg/s and 2963 mmHg/s and 4495 mmHg/s
  QRS amplitude (% baseline): 97 % baseline and 82 % baseline and 80 % baseline and 89 % baseline
  Systolic blood pressure (mmHg): 153 mmHg and 136 mmHg and 139 mmHg and 152 mmHg
Telemetered dogs; [11]
  ECG PR interval: 96 ms and 86 ms and 89 ms and 67 ms
  ECG QRS duration: 48 ms and 37 ms and 39 ms
  Left ventricular -dP/dt (mmHg/s): 2830 mmHg/s and 3356 mmHg/s and 3220 mmHg/s and 3767 mmHg/s
  QRS amplitude (% baseline): 108 % baseline and 84 % baseline and 81 % baseline and 102 % baseline
  Systolic blood pressure (mmHg): 147 mmHg and 145 mmHg and 158 mmHg
Telemetered dogs; [12]
  ECG PR interval: 98 ms and 88 ms and 86 ms and 73 ms
  ECG QRS duration: 48 ms and 37 ms and 39 ms
  Left ventricular -dP/dt (mmHg/s): 3465 mmHg/s and 3133 mmHg/s and 2471 mmHg/s and 4567 mmHg/s
  QRS amplitude (% baseline): 100 % baseline and 88 % baseline and 97 % baseline and 93 % baseline
  Systolic blood pressure (mmHg): 144 mmHg and 140 mmHg and 137 mmHg and 142 mmHg
Telemetered dogs; [13]
  ECG PR interval: 101 ms and 87 ms and 98 ms and 66 ms
  ECG QRS duration: 49 ms and 38 ms and 40 ms and 37 ms
  Left ventricular -dP/dt (mmHg/s): 3004 mmHg/s and 2664 mmHg/s and 2608 mmHg/s and 4493 mmHg/s
  QRS amplitude (% baseline): 121 % baseline and 90 % baseline and 84 % baseline
  Systolic blood pressure (mmHg): 133 mmHg and 131 mmHg and 134 mmHg and 165 mmHg
Telemetered dogs; [14]
  ECG PR interval: 108 ms and 95 ms and 94 ms and 77 ms
  ECG QRS duration: 47 ms and 37 ms and 40 ms
  Left ventricular -dP/dt (mmHg/s): 2948 mmHg/s and 3176 mmHg/s and 2965 mmHg/s and 4367 mmHg/s
  QRS amplitude (% baseline): 91 % baseline and 93 % baseline and 81 % baseline and 101 % baseline
  Systolic blood pressure (mmHg): 151 mmHg and 132 mmHg and 146 mmHg and 164 mmHg
Telemetered dogs; [15]
  ECG PR interval: 115 ms and 93 ms and 97 ms and 80 ms
  ECG QRS duration: 48 ms and 38 ms and 39 ms
  Left ventricular -dP/dt (mmHg/s): 3689 mmHg/s and 2854 mmHg/s and 2653 mmHg/s and 4540 mmHg/s
  QRS amplitude (% baseline): 114 % baseline and 97 % baseline and 102 % baseline
  Systolic blood pressure (mmHg): 156 mmHg and 142 mmHg
Telemetered dogs; [16]
  ECG PR interval: 90 ms and 106 ms and 89 ms
  ECG QRS duration: 37 ms and 40 ms
  Left ventricular -dP/dt (mmHg/s): 3499 mmHg/s and 3284 mmHg/s and 4521 mmHg/s
  QRS amplitude (% baseline): 97 % baseline and 88 % baseline and 93 % baseline
